Results from patent publication US20110256206A1, “IMPLANTABLE DEVICES FOR TREATING HIV” (priority 2008, published 2011).

Legend:
[1] = Solubility of TMC278 and of TMC278 recrystallized from DMSO; type: physicochemical
Experimental: In addition to increasing the water uptake into the bulk of the polymer, excipients can be used to decrease the crystallinity of the TMC278 and thereby lower the energy necessary to solubilize the drug. […] The recrystallized TMC278 was prepared by dissolving 10 grams of TMC278 in 800 ml of DMSO under gentle stirring for 2 hours. One hundred milliliters of the solution was subsequently poured into a flat bottomed aluminum mold. Solution was lyophilized using a Dora-Stop MTS system. Lyophilized TMC278 was collected. Two grams of PLGA 50/50 were fed into DACA compounder that was pre-set to 120° C. with screws rotating at 100 rpm. After the polymer was fed into the DACA and melted, two grams of lyophilized TMC278 were fed into the compounder and mixed at the set conditions for an additional 5 minutes. The extruded strands were collected, cooled in ambient conditions and placed in plastic bags and stored in a nitrogen box for analysis.
The lowered crystallinity of the TMC278 when re-crystallized from DMSO is also reflected in the change of the appearance of the TMC278 crystals following the recrystallization procedure. The morphology of the TMC278 particles in the drug powder appear compact and needle-shaped, but after the recrystallization process the particles are highly porous (FIG. 3). […]

[2] = Effect of gamma irradiation process parameters on recovery of TMC278 from polymer specimens; type: physicochemical
Experimental: For those samples that were irradiated under a nitrogen atmosphere, the following procedure was followed. Polymer implants were prepared containing 60% TMC278 and 40% PLGA 50/50 as described above. Samples were placed in Nalgene™ cuvettes inside the antechamber of a nitrogen glovebox. An automatic vacuum cycle was executed consisting of three 8 minute vacuum purges each followed by nitrogen refilling. The samples were transferred to the main chamber and allowed to equilibrate overnight. The cuvettes were placed in foil pouches and the pouches were sealed before removal from the nitrogen glovebox. Samples were removed from glovebox and irradiated as directed.
Those samples that were irradiated under ambient conditions were placed in vials and aluminum pouches, which were heat sealed under ambient conditions and were stored at 0° C. until they reached that temperature. The samples that were processed at 0° C. were stored at 0° C. Subsequently, the samples were removed from freezer environment and immediately placed in the irradiator. […]
From the data it can be seen that exposure level of irradiation is the most significant factor in achieving complete recovery of TMC278 from irradiated samples. […] In addition, the samples that were exposed to 15 kgy irradiation under nitrogen environment were analyzed for impurities stemming from TMC278 degradation.

[3] = clinical studies; less frequent than with marketed NNRTIs; cited from earlier work

Row | Solubility relative to unrecrystallized TMC278 ([1]; recrystallized (lyophilized from DMSO) versus unrecrystallized TMC278) | TMC278 recovered (average) ([2]; irradiated at 25 kgy (under nitrogen)) [%] | Solubility in DMSO ([1]; DMSO) | Compound | Impurities stemming from TMC278 degradation (mass spectrometry) ([2]; 15 kgy irradiation under nitrogen environment) | Side effects [3]
1 | more than 250 × |  |  | Cc1cc(/C=C/C#N)cc(C)c1Nc1ccnc(Nc2ccc(C#N)cc2)n1 [recrystallized TMC278] |  | 
2 |  | 81 | highly soluble | Cc1cc(C=CC#N)cc(C)c1Nc1ccnc(Nc2ccc(C#N)cc2)n1 [TMC278, 4-[[4-[[4-(2-cyanoethenyl)-2,6-dimethylphenyl}-amino]-2-pyrimidinyl]-amino]-benzonitrile] | no new impurities formed by the irradiation | nausea, dizziness, abnormal dreams, dyspepsia, asthenia, skin rashes, somnolence and vertigo
